Experiments:
[1] = system: HCT-116 human colon carcinoma xenograft; test: In vivo tumor efficacy model, mouse HCT116 human colon carcinoma xenograft
Protocol: In Vivo Tumor Efficacy Model
HCT-116 (1×10^6) cells in McCoy's 5A medium were aseptically injected into the subcutaneous space in the right dorsal flank of female CD-1 nude mice (age 8 weeks, Charles River) using a 23-ga needle. Tumor volumes were calculated using standard procedures (0.5×(length×width^2)). […]. Doses (0.1 mL) were administered via 22 gauge oral gavage needle. Control animals received vehicle alone. Animals were dosed once daily for 21 days, and there were 10 animals in each group. Tumor size and body weight were measured twice per week. Compounds 1 and iii were well-tolerated at all doses in this study. […]

[2] = system: HCT116 cells; test: BrdU cell proliferation assay in HCT116 cells
Protocol: BrdU Cell Proliferation Assay
(§1) Cell proliferation of each cell line was measured using the cell proliferation enzyme-linked immunosorbent assay (ELISA), 5-bromo-2′-deoxyuridine (BrdU) colorimetric kit according to the manufacturer's recommendations. The assay measures cell proliferation by quantifying BrdU incorporation into replicating deoxyribonucleic acid (DNA). Briefly, each well was incubated with 10 μL of BrdU labeling reagent for 2 hours at 37° C. in a humidified cell culture chamber. After aspiration of the labeling media, the cells were fixed and denatured by adding 200 μL of ethanol to each well and incubated for 30 minutes at room temperature.
(§2) Concentration response curves were generated by calculating the decrease in optical density in samples treated with test compound relative to the DMSO-treated controls.

[3] = system: SW480 cells; test: BrdU cell proliferation assay in SW480 cells
Protocol: BrdU Cell Proliferation Assay
as §1, §2

[4] = biological target: T1, Aurora A (Homo sapiens, UniProt O14965); test: pT288 Aurora A autophosphorylation assay; assay type: cell-based; conditions: HCT-116 cells, 60 minutes treatment
T1 construct: Human tumor cells (HCT-116, obtained from ATCC) were grown on 96-well dishes; host or cells: HCT-116
T1 sequence (O14965 1-403): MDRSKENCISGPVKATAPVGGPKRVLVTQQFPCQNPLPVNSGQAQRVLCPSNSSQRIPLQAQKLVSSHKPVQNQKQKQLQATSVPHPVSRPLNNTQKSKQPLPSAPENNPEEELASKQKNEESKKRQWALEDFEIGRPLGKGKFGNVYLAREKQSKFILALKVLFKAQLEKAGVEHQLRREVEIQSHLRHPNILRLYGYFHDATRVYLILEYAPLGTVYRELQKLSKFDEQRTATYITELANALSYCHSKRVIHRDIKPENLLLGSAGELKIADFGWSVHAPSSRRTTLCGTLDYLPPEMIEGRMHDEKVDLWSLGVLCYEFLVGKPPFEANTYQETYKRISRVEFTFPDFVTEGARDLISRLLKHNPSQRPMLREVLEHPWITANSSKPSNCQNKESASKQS
Protocol: pT288 Aurora A Autophosphorylation Assay.
After incubation, the growth medium was replaced with 75 μL of fresh media and 25 μL of test compound was added to the cells in two-fold serial dilutions in dimethyl sulfoxide (DMSO) to achieve final concentrations ranging from 5 to 0.010 μM. Test compound at each dilution was added as replicates in 4 rows on the dish, and DMSO (20 nM) was added to each well of two columns for the untreated controls. The cells were treated with test compound or DMSO for 60 minutes at 37° C. in a humidified cell culture chamber. Cells were then fixed with 4% para-formaldehyde in phosphate-buffered saline (PBS) for 10 minutes, permeated with 0.5% Triton X-100 in PBS for 10 minutes, and washed twice in PBS.
Cells were visualized using a Discovery-1 High Content Imaging System. Images from nine or sixteen sites per well were captured at 200× magnification. Inhibition of Aurora A was determined by measuring pT288 (Aurora A autophosphorylation) fluorescent intensity within MPM2 immunopositive (mitotic) cells using Metamorph software. Concentration response curves were generated by calculating the decrease of pT288 fluorescent intensity in test compound-treated samples relative to the DMSO-treated controls, and growth inhibition (IC50) values were determined from those curves.

[5] = oral, once daily for 21 days, at each dose

SMILES | tolerability ([1]; oral, once daily for 21 days, all doses, female CD-1 nude mice) | BrdU HCT116 LD50 [2] | BrdU SW480 LD50 [3] | IC50 [4] | in vivo potency compared with compound iii ([1]; mouse HCT116 human colon carcinoma xenograft model) | tolerability ([1]; mouse, in vivo, po) | tumor growth delay (TGD) compared with compound iii [1, 5] | tumor growth inhibition (TGI) compared with compound iii [1, 5]
COc1cccc(F)c1C1=NCc2cnc(Nc3ccc(C(=O)O)cc3)nc2-c2ccc(Cl)cc21 [iii] | well-tolerated | 0.13 µM | 0.94 µM | 18 nM |  |  |  | 
COc1cc(Nc2ncc3c(n2)-c2ccc(Cl)cc2C(c2c(F)cccc2OC)=NC3)ccc1C(=O)O [Compound 1, 4-{[9-chloro-7-(2-fluoro-6-methoxyphenyl)-5H-pyrimido[5,4-d][2]benzazepin-2-yl]amino}-2-methoxybenzoic acid] |  | 0.03 µM | 0.41 µM |  | more potent than compound iii | well-tolerated | longer tumor growth delay | greater tumor growth inhibition
COc1cc(Nc2ncc3c(n2)-c2ccc(Cl)cc2C(c2ccccc2F)=NC3)ccc1C(=O)O [ii] |  | 0.758 µM | 7.579 µM | 150 nM |  |  |  | 
O=C(O)c1ccc(Nc2ncc3c(n2)-c2ccc(Cl)cc2C(c2ccccc2F)=NC3)cc1 [i] |  | 0.707 µM | 6.502 µM |  |  |  |  | 

Source: patent US11958855B2, “Aurora kinase inhibitors for inhibiting mitotic progression” (Millennium Pharmaceuticals, Inc., priority 2006, dated 2024)
